The results in this text go back to paper PMC9572942, “The Discovery of Small Allosteric and Active Site Inhibitors of the SARS-CoV-2 Main Protease via Structure-Based Virtual Screening and Biological Evaluation” (Molecules, 2022).

A word on the IC50: it is the concentration at which inhibition is half-maximal. What is called Ki is a measure of affinity in units of concentration, obtained from inhibition or displacement.

Experiment [1] has as its target T1, SARS-CoV-2 M^pro enzyme (Severe acute respiratory syndrome coronavirus 2, UniProt P0DTD1). Nature of the experiment: FRET-based enzyme assay and IC50 determination. It is filed as biochemical. The conditions noted are these: 4.6 μM enzyme, HEPES pH 6.5.
Experiment [2] concerns the target T1, SARS-CoV-2 M^pro enzyme. Nature of the experiment: Inhibition kinetic study (Lineweaver–Burk, FRET assay). It is filed as biochemical. Particulars: from slope of Lineweaver–Burk curves vs. inhibitor concentration.

On to `O=C(CSc1cnc2ccccc2n1)NC1CCCC1` [CB03], for which, in experiment [1], inhibition was half-maximal at 301 ± 10 µM (IC50). The molecule also displayed a Ki in experiment [2] of 256 µM.
